# According to US12319708B2, “Agonists of peroxisome proliferator-activated receptor alpha (PPARα) and methods of use” (The Board of Regents of the University of Oklahoma, priority 2018, dated 2025):
# Read-outs that look alike come from different tables or passages of the source.
# Target: T1, hPPARα (Homo sapiens, UniProt Q07869)
# T1 sequence (Q07869 1-468): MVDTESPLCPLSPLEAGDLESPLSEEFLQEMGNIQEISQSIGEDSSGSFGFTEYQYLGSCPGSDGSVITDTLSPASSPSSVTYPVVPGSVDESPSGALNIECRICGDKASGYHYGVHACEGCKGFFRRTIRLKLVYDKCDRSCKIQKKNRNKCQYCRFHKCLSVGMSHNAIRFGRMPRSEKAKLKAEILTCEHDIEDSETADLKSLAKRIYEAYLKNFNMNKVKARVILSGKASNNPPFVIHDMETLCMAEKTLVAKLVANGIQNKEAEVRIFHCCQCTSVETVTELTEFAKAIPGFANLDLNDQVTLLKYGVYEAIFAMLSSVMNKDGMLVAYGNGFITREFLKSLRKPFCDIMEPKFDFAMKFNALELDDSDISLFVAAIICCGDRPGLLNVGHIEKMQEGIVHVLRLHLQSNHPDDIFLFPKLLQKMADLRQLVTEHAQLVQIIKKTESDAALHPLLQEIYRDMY
# Experiment: PPARα luciferase cell reporter assay (Indigo Biosciences)
# Assay type: cell-based
# Conditions: for ratio (5/50): ratio of relative light unit (RLU) signal at 5 and 50 μM: 5 and 50 μM compound concentrations; for fold-signal: ratio of maximal signal strength to that obtained with GW590735: relative to GW590735
# Text: With the focused subset of analogs in-hand, our efforts shifted to the evaluation of these derivatives for PPARα agonism. Preliminary evaluation utilized a commercially available PPARα luciferase cell reporter assay (Indigo Biosciences). The cell-line employed is engineered to constitutively express high-levels of hPPARα. Upon interaction with an agonist, hPPARα translocates to the nucleus, binds to the PPRE, and upregulates gene transcription, including the inserted luciferase gene. Luciferase activity is detected indirectly through quantification of oxyluciferin production.
# [1] = mean ± SEM of at least two separate experiments in triplicate (Table 9), read-out: EC50 hPPARα
# [2] = structure IIa compounds (Table 6)
# [3] = Table 6, cellular luciferase activity, read-out: α EC50
# [4] = structure IIb compounds (Table 8)
Compound,Fold (5 μM): fold increase in luciferase compared to DMSO negative control [2],Fold (50 μM): fold increase in luciferase compared to DMSO negative control [2],also measured
Cc1cc(CNc2cccc(C(=O)O)c2)ccc1OCc1cc(F)cc(F)c1 [25′],–,–,ratio (5/50): ratio of relative light unit (RLU) signal at 5 and 50 μM: 1.1; fold-signal: ratio of maximal signal strength to that obtained with GW590735: 1.6
O=C(O)c1cccc(NCc2ccc(OCc3ccc(F)cc3)c(F)c2)c1 [26′],–,–,ratio (5/50): ratio of relative light unit (RLU) signal at 5 and 50 μM: 0.7; fold-signal: ratio of maximal signal strength to that obtained with GW590735: 1.7
O=C(O)c1cccc(NCc2ccc(OCc3ccc(F)cc3)c(Cl)c2)c1 [27′],–,–,ratio (5/50): ratio of relative light unit (RLU) signal at 5 and 50 μM: 1.1; fold-signal: ratio of maximal signal strength to that obtained with GW590735: 1.5
Cc1cc(CN(C)c2cccc(C(=O)O)c2)ccc1OCc1ccc(F)cc1 [30′],–,–,ratio (5/50): ratio of relative light unit (RLU) signal at 5 and 50 μM: 0.8; EC50 [1]: 67 ± 10 nM; fold-signal: ratio of maximal signal strength to that obtained with GW590735: 2.1
O=C(O)c1cc(F)cc(NCc2ccc(OCc3ccc(F)cc3)c(Cl)c2)c1 [32′],–,–,ratio (5/50): ratio of relative light unit (RLU) signal at 5 and 50 μM: 1.1; EC50 [1]: 52 ± 11 nM; fold-signal: ratio of maximal signal strength to that obtained with GW590735: 1.8
COc1ccc(COc2ccc(CNc3cccc(B(O)O)c3)cc2)cc1 [Compound 110],1 fold,1 fold,–
CC(C)(Oc1cccc(NCc2ccc(OCc3ccccc3)cc2)c1)C(=O)O [Compound 116],1 fold,46 fold,–
O=C(O)c1cccc(NCc2ccc(OCc3ccccc3)cc2)c1 [Compound 117],18 fold,35 fold,–
O=C(O)c1cccc(NCc2ccc(OCc3ccc(Cl)cc3Cl)cc2)c1 [Compound 118],1 fold,37 fold,–
O=C(O)c1cccc(NCc2ccc(OCc3cc(F)cc(F)c3)cc2)c1 [Compound 119],9 fold,35 fold,–
O=C(O)c1cccc(NCc2ccc(OCc3ccc([N+](=O)[O-])cc3)cc2)c1 [Compound 120],16 fold,35 fold,–
CC(C)(Oc1cccc(NCc2ccc(OCc3cc(F)cc(F)c3)cc2)c1)C(=O)O [Compound 121],16 fold,42 fold,–
O=C(O)c1cccc(NCc2ccc(OCc3ccc(Cl)cc3)cc2)c1 [Compound 122],17 fold,36 fold,–
CC(C)(Oc1cccc(NCc2ccc(OCc3ccc(Cl)cc3)cc2)c1)C(=O)O [Compound 123],2 fold,55 fold,–
O=C(O)c1cccc(NCc2ccc(OCc3ccc(C(F)(F)F)cc3)cc2)c1 [Compound 126],81 fold,100 fold,EC50 [3]: 800 nM
CC(C)(Oc1cccc(NCc2ccc(OCc3ccc(F)cc3)cc2)c1)C(=O)O [Compound 127],11 fold,150 fold,–
CC(C)(Oc1cccc(NCc2ccc(OCc3ccc(C(F)(F)F)cc3)cc2)c1)C(=O)O [Compound 128],19 fold,106 fold,–
O=C(O)COc1cccc(NCc2ccc(OCc3ccc(C(F)(F)F)cc3)cc2)c1 [Compound 129],2 fold,112 fold,–
COc1ccc(COc2ccc(CNc3cccc(OCC(=O)O)c3)cc2)cc1 [Compound 130],2 fold,43 fold,EC50 [3]: 29200 nM
O=C(O)c1cccc(NCCc2ccc(OCCc3ccccc3)cc2)c1 [Compound 133],1 fold,0 fold,–
COc1ccc(COc2ccc(CNc3cccc(C(=O)NO)c3)cc2)cc1 [Compound 134],3 fold,9 fold,–

Compound,Fold (5 μM): fold increase in luciferase compared to DMSO negative control [2],Fold (50 μM): fold increase in luciferase compared to DMSO negative control [2],also measured
CS(=O)(=O)Nc1cccc(NCc2ccc(OCc3ccc(F)cc3)cc2)c1 [Compound 145],3 fold,5 fold,–
O=C(NO)c1cccc(NCc2ccc(OCc3ccc(F)cc3)cc2)c1 [Compound 146],34 fold,53 fold,–
NS(=O)(=O)c1cccc(NCc2ccc(OCc3ccc(F)cc3)cc2)c1 [Compound 147],3 fold,3 fold,–
Fc1ccc(COc2ccc(CNc3cccc(-c4nnn[nH]4)c3)cc2)cc1 [Compound 148],73 fold,85 fold,EC50 [3]: 5700 nM
CN(Cc1ccc(OCc2ccc(F)cc2)cc1)c1cccc(C(=O)O)c1 [Compound 151],102 fold,109 fold,EC50 [3]: 1000 nM
CN(Cc1ccc(OCc2ccc(F)cc2)cc1)c1cccc(OC(C)(C)C(=O)O)c1 [Compound 153],94 fold,120 fold,EC50 [3]: 1700 nM
OB(O)c1cccc(NCc2ccc(OCc3ccc(F)cc3)cc2)c1 [Compound 154],3 fold,2 fold,–
O=C(O)c1ccc(NCc2ccc(OCc3ccc(C(F)(F)F)cc3)cc2)cc1 [Compound 155],–,–,Fold (5 μM): fold increase in luciferase compared to DMSO negative control [4]: 4 fold; Fold (50 μM): fold increase in luciferase compared to DMSO negative control [4]: 8 fold
COc1ccc(COc2ccc(CNc3ccc(C(=O)O)cc3)cc2)cc1 [Compound 162],–,–,Fold (5 μM): fold increase in luciferase compared to DMSO negative control [4]: 4 fold; Fold (50 μM): fold increase in luciferase compared to DMSO negative control [4]: 29 fold
O=C(O)c1cc(Cl)cc(NCc2ccc(OCc3ccc(F)cc3)cc2)c1 [Compound 168],18 fold,93 fold,–
CC(C)(Oc1ccc(NCc2ccc(OCc3ccc(F)cc3)cc2)cc1)C(=O)O [Compound 182],–,–,Fold (5 μM): fold increase in luciferase compared to DMSO negative control [4]: 40 fold; Fold (50 μM): fold increase in luciferase compared to DMSO negative control [4]: 74 fold
O=C(O)c1ccc(NCc2ccc(OCc3ccc(F)cc3)cc2)cc1 [Compound 183],–,–,Fold (5 μM): fold increase in luciferase compared to DMSO negative control [4]: 4 fold; Fold (50 μM): fold increase in luciferase compared to DMSO negative control [4]: 14 fold
O=C(O)c1cc(Br)cc(NCc2ccc(OCc3ccc(F)cc3)cc2)c1 [Compound 184],59 fold,69 fold,EC50 [3]: 900 nM
O=C(O)c1cc(F)cc(NCc2ccc(OCc3ccc(F)cc3)cc2)c1 [Compound 185],61 fold,66 fold,EC50 [3]: 700 nM
COc1ccc(CCOc2ccc(CCNc3cccc(C(=O)O)c3)cc2)cc1 [Compound 187],1 fold,0 fold,–
CC(C)(Sc1cccc(NCc2ccc(OCc3ccc(F)cc3)cc2)c1)C(=O)O [Compound 188],10 fold,45 fold,–
O=C(O)c1cccc(NCc2ccc(OCc3ccc(I)cc3)cc2)c1 [Compound 189],39 fold,37 fold,EC50 [3]: 1200 nM
N#Cc1ccc(COc2ccc(CNc3cccc(C(=O)O)c3)cc2)cc1 [Compound 191],42 fold,61 fold,–
O=C(O)c1cccc(NCc2ccc(OCc3ccc(Br)cc3)cc2)c1 [Compound 192],53 fold,58 fold,EC50 [3]: 800 nM
O=C(O)c1cccc(NCc2ccc(OCc3cccc(F)c3)cc2)c1 [Compound 193],73 fold,56 fold,EC50 [3]: 1100 nM
O=C(O)c1cccc(NCc2ccc(OCc3ccc(F)cc3F)cc2)c1 [Compound 194],51 fold,49 fold,EC50: 400 nM
